In US8349811B2, “Stable 6-methoxy-2′,3′-dideoxyguanosine, method for preparing the same and pharmaceutical composition containing the same” (Nanjing Changao Pharmaceutical Science & Technology Co., …, priority 2008, dated 2013):
“Also recorded” adds a separate entry of the source. Blank lines part the entries; values can stand above or below the molecule they belong to.

Key:
[1] = Moisture absorption and handling under the general conditions; assay type: physicochemical; conditions: for moisture absorption: general conditions
[2] = tested on: HIV (Human Immunodeficiency Virus); assay: Anti-HIV experimental study of the inventors
[3] = Metabolism in plasma to ddG; assay type: in vitro ADME; conditions: metabolite 2′,3′-dideoxyguanosine (ddG)
[4] = Water-absorbing test in different humidity environments at 5 degrees centigrade; assay type: physicochemical
Method: (§1) Table 1 is a comparison table, wherein, the 6-methoxy-2′,3′-dideoxyguanosine with less than 6% (wt %) of water content is placed in different humidity environments at 5 degrees centigrade for carrying out water-absorbing tests, the products at the corresponding time points are placed in the environment with the temperature of 30 degrees centigrade and the humidity of 90% (wt %) for carrying out the acceleration test inspection, the sampling inspection are carried out at the 15th day, the 30th day and the 60th day respectively, and the inspection indexes comprise the character and the water content.

[5] = Acceleration test inspection at 30 degrees centigrade and humidity 90% (character and water content); assay type: physicochemical; conditions: for Acceleration Test Inspection, Water Content / Acceleration Test Inspection, Character: 30 degrees centigrade, humidity 90%
Method: as §1

hepatitis B virus (HBV) = conditions: reported in Chinese patent CN1493301A; cited from earlier work
[6] = Water content of the product of the Examples by the Karl-Fischer method; assay type: physicochemical; conditions: after water absorption (Examples 1-3) or vacuum drying (Examples 4-5)
Method: 1 kg of powder of 6-methoxy-2′,3′-dideoxyguanosine with 2.7% (wt %) of water content is laid in a plate flat and placed in the environment with the temperature of 5 degrees centigrade and the humidity of 60% (wt %), is mixed every 1-4 hours, and the required product is obtained after 48 hours.
0.5 kg of powder of 6-methoxy-2′,3′-dideoxyguanosine with 1.5% (wt %) of water content is laid in a plate flat and placed in the environment with the temperature of 15 degrees centigrade and the humidity of 40% (wt %), is mixed every 3-5 hours, and the required product is obtained after 36 hours.
0.5 kg of powder of 6-methoxy-2′,3′-dideoxyguanosine with 3.2% (wt %) of water content is laid in a plate flat and placed in the environment with the temperature of 0 degrees centigrade and the humidity of 90% (wt %), is mixed every 2 hours, and the required product is obtained after 36 hours.
1.5 kg of powder of 6-methoxy-2′,3′-dideoxyguanosine with 60.5% (wt %) of water content is laid in a plate flat and placed in a vacuum drying box, anhydrous calcium chloride is taken as a drying agent, vacuumizing is carried out by a water pump at the temperature of 25 degrees centigrade, decompression drying is further carried out, and the required product is obtained after 48 hours.
1.0 kg of powder of 6-methoxy-2′,3′-dideoxyguanosine with 40.5% (wt %) of water content is laid in a plate flat and placed in a vacuum drying box, phosphorus pentoxide is taken as a drying agent, vacuum decompression drying is carried out at the temperature of 15 degrees centigrade, and the required product is obtained after 38 hours.

DHBV DNA replication = assay: Suppression of DHBV DNA replication; conditions: competition with ddCTP
[7] = product of placement time 14 hours, 15th Day
[8] = product of placement time 14 hours, 30th Day
[9] = product of placement time 14 hours, 60th Day
[10] = product of placement time 2 days, 15th Day
[11] = product of placement time 2 days, 30th Day
[12] = product of placement time 2 days, 60th Day
[13] = product of placement time 3 days, 15th Day
[14] = product of placement time 3 days, 30th Day
[15] = product of placement time 3 days, 60th Day
[16] = product of placement time 4 days, 15th Day
[17] = product of placement time 4 days, 30th Day
[18] = product of placement time 4 days, 60th Day
[19] = product of placement time 10 days, 15th Day
[20] = product of placement time 10 days, 30th Day
[21] = product of placement time 10 days, 60th Day

moisture absorption ([1]; stable form, water content 6-30% (wt %)): difficult to absorb the moisture | stability ([1]; stable form, water content 6-30% (wt %), room temperature): very stable at room temperature
SMILES: COc1nc(N)nc2c1ncn2[C@H]1CC[C@@H](CO)O1 [stable 6-methoxy-2′,3′-dideoxyguanosine, 6-methoxy-2′,3′-dideoxyguanosine]

Water Content When Placed in Different Humidity Environments ([4]; Humidity 40%, placement time 0 hour): 2.7 wt % | Water Content When Placed in Different Humidity Environments ([4]; Humidity 40%, placement time 1 hour): 4.3 wt % | Water Content When Placed in Different Humidity Environments ([4]; Humidity 40%, placement time 2 hours): 5.4 wt % | Water Content When Placed in Different Humidity Environments ([4]; Humidity 40%, placement time 14 hours): 8.7 wt % | Water Content When Placed in Different Humidity Environments ([4]; Humidity 40%, placement time 2 days): 12.6 wt % | Water Content When Placed in Different Humidity Environments ([4]; Humidity 40%, placement time 3 days): 21.8 wt % | Water Content When Placed in Different Humidity Environments ([4]; Humidity 40%, placement time 4 days): 22.4 wt % | Water Content When Placed in Different Humidity Environments ([4]; Humidity 40%, placement time 10 days): 21.8 wt % | Water Content When Placed in Different Humidity Environments ([4]; Humidity 60%, placement time 0 hour): 2.7 wt % | Water Content When Placed in Different Humidity Environments ([4]; Humidity 60%, placement time 1 hour): 4.7 wt % | Water Content When Placed in Different Humidity Environments ([4]; Humidity 60%, placement time 2 hours): 5.7 wt % | Water Content When Placed in Different Humidity Environments ([4]; Humidity 60%, placement time 14 hours): 8.6 wt % | Water Content When Placed in Different Humidity Environments ([4]; Humidity 60%, placement time 2 days): 16.3 wt % | Water Content When Placed in Different Humidity Environments ([4]; Humidity 60%, placement time 3 days): 22.5 wt % | Water Content When Placed in Different Humidity Environments ([4]; Humidity 60%, placement time 4 days): 23.64 wt % | Water Content When Placed in Different Humidity Environments ([4]; Humidity 60%, placement time 10 days): 23.5 wt % | Water Content When Placed in Different Humidity Environments ([4]; Humidity 90%, placement time 0 hour): 2.7 wt % | Water Content When Placed in Different Humidity Environments ([4]; Humidity 90%, placement time 1 hour): 5.1 wt % | Water Content When Placed in Different Humidity Environments ([4]; Humidity 90%, placement time 2 hours): 5.8 wt % | Water Content When Placed in Different Humidity Environments ([4]; Humidity 90%, placement time 14 hours): 8.9 wt % | Water Content When Placed in Different Humidity Environments ([4]; Humidity 90%, placement time 2 days): 15.9 wt % | Water Content When Placed in Different Humidity Environments ([4]; Humidity 90%, placement time 3 days): 22.7 wt % | Water Content When Placed in Different Humidity Environments ([4]; Humidity 90%, placement time 4 days): 22.8 wt % | Water Content When Placed in Different Humidity Environments ([4]; Humidity 90%, placement time 10 days): 21.9 wt % | Acceleration Test Inspection, Water Content ([5]; product of placement time 1 hour, 15th Day): 23.4 wt % | Acceleration Test Inspection, Water Content ([5]; product of placement time 1 hour, 30th Day): 22.4 wt % | Acceleration Test Inspection, Water Content ([5]; product of placement time 1 hour, 60th Day): 21.8 wt % | Acceleration Test Inspection, Water Content ([5]; product of placement time 2 hours, 15th Day): 22.9 wt % | Acceleration Test Inspection, Water Content ([5]; product of placement time 2 hours, 30th Day): 22.1 wt % | Acceleration Test Inspection, Water Content ([5]; product of placement time 2 hours, 60th Day): 21.5 wt % | Acceleration Test Inspection, Character [5, 7]: Powder | Acceleration Test Inspection, Water Content [5, 7]: 22.7 wt % | Acceleration Test Inspection, Character [5, 8]: Powder | Acceleration Test Inspection, Water Content [5, 8]: 22.0 wt % | Acceleration Test Inspection, Character [5, 9]: Powder | Acceleration Test Inspection, Water Content [5, 9]: 21.4 wt % | Acceleration Test Inspection, Character [5, 10]: Powder | Acceleration Test Inspection, Water Content [5, 10]: 23.0 wt % | Acceleration Test Inspection, Character [5, 11]: Powder | Acceleration Test Inspection, Water Content [5, 11]: 22.5 wt % | Acceleration Test Inspection, Character [5, 12]: Powder | Acceleration Test Inspection, Water Content [5, 12]: 21.6 wt % | Acceleration Test Inspection, Character [5, 13]: Powder | Acceleration Test Inspection, Water Content [5, 13]: 22.1 wt % | Acceleration Test Inspection, Character [5, 14]: Powder | Acceleration Test Inspection, Water Content [5, 14]: 21.8 wt % | Acceleration Test Inspection, Character [5, 15]: Powder | Acceleration Test Inspection, Water Content [5, 15]: 21.5 wt % | Acceleration Test Inspection, Character [5, 16]: Powder | Acceleration Test Inspection, Water Content [5, 16]: 22.9 wt % | Acceleration Test Inspection, Character [5, 17]: Powder | Acceleration Test Inspection, Water Content [5, 17]: 21.8 wt % | Acceleration Test Inspection, Character [5, 18]: Powder | Acceleration Test Inspection, Water Content [5, 18]: 21.8 wt % | Acceleration Test Inspection, Character [5, 19]: Powder | Acceleration Test Inspection, Water Content [5, 19]: 22.0 wt % | Acceleration Test Inspection, Character [5, 20]: Powder | Acceleration Test Inspection, Water Content [5, 20]: 21.7 wt % | Acceleration Test Inspection, Character [5, 21]: Powder | Acceleration Test Inspection, Water Content [5, 21]: 21.9 wt % | character ([5]; water content greater than 6% (wt %), summary of Table 1): basically kept unchanged
SMILES: COc1nc(N)nc2c1ncn2[C@H]1CC[C@@H](CO)O1 [6-methoxy-2′,3′-dideoxyguanosine]
anti-HIV activity [2]: plays the role of fighting against the HIV | metabolism in plasma [3]: rapidly metabolized in plasma to 2′,3′-dideoxyguanosine (ddG) | behaviour during the smashing process ([1]; water content higher than 30% (wt %)): easy to be bonded into blocks during the smashing process | moisture absorption ([1]; water content lower than 6% (wt %)): easy to absorb the water; also recorded: very easy to absorb moisture and be blocked | anti-HBV activity (hepatitis B virus (HBV)): anti-HBV activity

water content of the required product [6]: 22.5 % (wt %)
SMILES: COc1nc(N)nc2c1ncn2[C@H]1CC[C@@H](CO)O1 [Example 4, 6-methoxy-2′,3′-dideoxyguanosine]

water content of the required product [6]: 18.5 % (wt %)
SMILES: COc1nc(N)nc2c1ncn2[C@H]1CC[C@@H](CO)O1 [Example 5, 6-methoxy-2′,3′-dideoxyguanosine]

water content of the required product [6]: 23.2 % (wt %)
SMILES: COc1nc(N)nc2c1ncn2[C@H]1CC[C@@H](CO)O1 [Example 3, 6-methoxy-2′,3′-dideoxyguanosine]

water content of the required product [6]: 23.5 % (wt %)
SMILES: COc1nc(N)nc2c1ncn2[C@H]1CC[C@@H](CO)O1 [Example 1, 6-methoxy-2′,3′-dideoxyguanosine]

SMILES: Nc1nc2c(ncn2[C@H]2CC[C@@H](COP(=O)(O)OP(=O)(O)OP(=O)(O)O)O2)c(=O)[nH]1 [ddGTP]
suppression of DHBV DNA replication (DHBV DNA replication): can selectively compete with the ddCTP for suppressing the DHBV DNA replication

water content of the required product [6]: 12.5 % (wt %)
SMILES: COc1nc(N)nc2c1ncn2[C@H]1CC[C@@H](CO)O1 [Example 2, 6-methoxy-2′,3′-dideoxyguanosine]
